Results taken from the supplement of paper PMC10307832.

Legend:
Test in all cases: relative viability (nuclei count vs DMSO), 5 days (fraction); higher = more cells survive
[1] = compound: O=C(O)c1ccc2c(c1)nc(Nc1cccc(Cl)c1)c1ccncc12 [Silmitasertib] + Cc1nc(Nc2ncc(C(=O)Nc3c(C)cccc3Cl)s2)cc(N2CCN(CCO)CC2)n1 [Dasatinib] (partner 0.075 µM)
Summary of the method: (§1)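 Nuclei were stained with Hoechst during a one-step fixation (final 0.05% Triton X-100, 1% formaldehyde, 1 ug/ml Hoechst) carried out 5 days after dosing, then counted on 4× images. The cells, lung cancer lines in 1536-well plates, had been dosed by pin tool the day after seeding with one drug alone or a fixed anchor-drug dose plus five library-drug doses (not always all listed) in √10 steps. Relative viability is the nuclei count in treated wells divided by that in vehicle wells, and each value is the median of duplicate plates.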

[2] = compound: O=C(O)c1ccc2c(c1)nc(Nc1cccc(Cl)c1)c1ccncc12 [Silmitasertib] + C[C@@H](Oc1cc(-c2cnn(C3CCNCC3)c2)cnc1N)c1c(Cl)ccc(F)c1Cl [Crizotinib] (partner 1 µM)
Summary of the method: as §1

Silmitasertib + Olaparib = compound: O=C(O)c1ccc2c(c1)nc(Nc1cccc(Cl)c1)c1ccncc12 [Silmitasertib] + O=C(c1cc(Cc2n[nH]c(=O)c3ccccc23)ccc1F)N1CCN(C(=O)C2CC2)CC1 [Olaparib] (partner 8 µM)
Summary of the method: as §1

[3] = compound: O=C(O)c1ccc2c(c1)nc(Nc1cccc(Cl)c1)c1ccncc12 [Silmitasertib] + Cc1nc(NC(=O)N2CCC[C@H]2C(N)=O)sc1-c1ccnc(C(C)(C)C(F)(F)F)c1 [Alpelisib] (partner 2 µM)
Summary of the method: as §1

Silmitasertib = compound: O=C(O)c1ccc2c(c1)nc(Nc1cccc(Cl)c1)c1ccncc12 [Silmitasertib]
Summary of the method: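 Viability was read as treated-well nuclei divided by vehicle-well nuclei, using the median across plates. Lung cancer cell lines in 1536-well plates were kept overnight at 37 °C, pinned with five √10-spaced library-drug doses, and after 5 days were Hoechst-stained, imaged at 4× and counted in MetaXpress. Plates passed only with control CV below 25% and at least one doubling.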

Row | Cell Line | relative viability ([1]; first compound 0.04 µM) | relative viability ([1]; first compound 0.4 µM) | relative viability ([1]; first compound 1.265 µM) | relative viability ([1]; first compound 4 µM) | relative viability ([2]; first compound 0.04 µM) | relative viability ([2]; first compound 0.4 µM) | relative viability ([2]; first compound 1.265 µM) | relative viability ([2]; first compound 4 µM) | relative viability (Silmitasertib + Olaparib; first compound 0.04 µM) | relative viability (Silmitasertib + Olaparib; first compound 0.4 µM) | relative viability (Silmitasertib + Olaparib; first compound 1.265 µM) | relative viability (Silmitasertib + Olaparib; first compound 4 µM) | relative viability ([3]; first compound 0.04 µM) | relative viability ([3]; first compound 0.4 µM) | relative viability ([3]; first compound 1.265 µM) | relative viability ([3]; first compound 4 µM) | relative viability (Silmitasertib; 0.04 µM) | relative viability (Silmitasertib; 0.4 µM) | relative viability (Silmitasertib; 1.265 µM) | relative viability (Silmitasertib; 4 µM)
1 | 201T | 0.533 | 0.593 | 0.522 | 0.612 | 0.999 | 0.991 | 1.07 | 1.18 | 0.82 | 0.756 | 0.945 | 0.953 | 0.908 | 1 | 1.01 | 1.13 | 1.08 | 0.994 | 1.02 | 1.06
2 | A549 | – | – | – | – | 0.819 | 0.677 | 0.777 | 0.748 | 0.301 | – | 0.273 | 0.12 | 1.02 | 0.918 | 0.828 | 0.869 | 1.03 | 0.994 | 1 | 0.882
3 | A-427 | 0.724 | – | 0.858 | 0.335 | 0.888 | – | 0.805 | 0.63 | 0.87 | 0.616 | 0.762 | 0.579 | 1.07 | – | 1.28 | 1.05 | 1.07 | – | 1.03 | 0.396
4 | ABC-1 | 0.632 | 0.505 | 0.321 | 0.391 | 1.27 | 1 | 0.516 | 0.445 | 0.814 | 0.863 | 0.777 | 0.738 | 1.11 | 0.832 | 0.546 | 0.381 | 1.37 | 0.773 | 0.656 | 0.465
5 | BEN | 0.382 | – | 0.295 | 0.233 | 0.974 | 0.827 | 0.739 | 0.846 | 1.31 | 0.506 | 0.964 | 1.15 | 1.02 | 0.783 | 0.896 | 0.956 | 1.16 | 0.795 | 1 | 0.885
6 | CAL-12T | 0.569 | 0.32 | 0.183 | 0.198 | 0.685 | 0.423 | 0.542 | 0.318 | 0.688 | 0.465 | 0.561 | 0.531 | 1.38 | 1.21 | 0.802 | 0.551 | 1.15 | 0.892 | 0.842 | 0.472
7 | COR-L23 | 0.535 | 0.404 | 0.426 | 0.408 | 0.665 | 0.67 | 0.727 | 0.629 | 0.393 | 0.31 | 0.325 | 0.283 | 0.843 | 0.788 | 0.759 | 0.586 | 1.07 | 0.782 | 1.09 | 0.831
8 | COR-L 105 | 0.357 | 0.345 | 0.34 | 0.264 | 0.881 | 0.679 | 0.702 | 0.501 | 0.716 | 0.614 | 0.689 | 0.5 | 1.16 | 1.06 | 0.803 | 0.664 | 1.05 | 0.902 | 0.768 | 0.553
9 | ChaGo-K-1 | 0.586 | 0.464 | 0.566 | 0.463 | 1.35 | 1 | 1.07 | 0.931 | 0.421 | 0.288 | 0.376 | 0.399 | – | – | – | – | 1.07 | 0.735 | 0.96 | 0.885
10 | EKVX | 0.6 | 0.394 | 0.478 | 0.373 | 1.15 | 0.819 | 0.653 | 0.895 | 0.889 | – | 0.7 | 0.784 | 1.01 | 0.628 | 0.739 | 0.656 | 1.11 | 0.617 | 0.864 | 0.717
11 | EMC-BAC-2 | 0.34 | 0.301 | 0.283 | 0.287 | 0.847 | 0.701 | 0.653 | 0.721 | 0.477 | 0.358 | 0.333 | 0.283 | 0.743 | 0.627 | 0.558 | 0.547 | 1.11 | 0.806 | 0.605 | 0.44
12 | EPLC-272H | 0.372 | – | 0.255 | 0.224 | 0.992 | – | 0.469 | 0.407 | 1.02 | 0.563 | 0.489 | 0.0904 | 1.04 | – | 0.632 | 0.763 | 1.25 | – | 0.807 | 0.154
13 | H3255 | 0.364 | 0.34 | 0.298 | 0.349 | 0.888 | 0.701 | 0.883 | 0.864 | 0.579 | 0.492 | 0.549 | 0.53 | 0.811 | 0.786 | 0.657 | 0.549 | 1.05 | 0.877 | 0.946 | 0.906
14 | HARA | 0.254 | 0.246 | 0.253 | 0.272 | 1.1 | 0.757 | 0.621 | 0.88 | 1.25 | 0.595 | 0.634 | 0.276 | 1.08 | 0.64 | 0.565 | 0.545 | 1.13 | 0.678 | 0.668 | 0.38
15 | HCC-15 | 0.669 | 0.53 | 0.396 | 0.32 | 0.804 | 0.603 | 0.71 | 0.575 | 0.777 | 0.508 | 0.595 | 0.39 | 0.972 | 0.683 | 0.618 | 0.45 | 1.11 | 0.769 | 0.825 | 0.377
16 | HCC-44 | – | – | – | – | 0.729 | 0.697 | 0.839 | 0.771 | 0.972 | 0.822 | 1.06 | 1.02 | 0.767 | 0.761 | 0.769 | 0.741 | 1.03 | 0.963 | 1.03 | 0.544
17 | HCC-78 | 0.51 | 0.286 | 0.309 | 0.323 | 0.379 | 0.31 | 0.298 | 0.323 | 0.92 | 0.42 | 0.509 | 0.734 | 0.417 | 0.243 | 0.268 | 0.319 | 1.05 | 0.697 | 0.654 | 0.764
18 | HCC-366 | 0.57 | 0.48 | 0.525 | 0.379 | 0.581 | – | 0.472 | 0.395 | 0.396 | 0.213 | 0.373 | 0.387 | 0.453 | – | 0.317 | 0.383 | 0.993 | 0.794 | 0.923 | 0.136
19 | HCC-827 | 0.342 | – | 0.259 | 0.274 | 0.993 | – | 0.952 | 1.01 | 0.659 | – | 0.705 | 0.735 | 1.03 | – | 1.07 | 1.03 | 1.09 | – | 1.14 | 0.996
20 | HOP-62 | 0.683 | – | 0.639 | 0.567 | 0.914 | – | 0.943 | 0.49 | 0.427 | – | 0.378 | 0.338 | 1.03 | – | 0.867 | 0.678 | 1.09 | – | 1.12 | 0.542
21 | IA-LM | – | – | – | – | 0.792 | 0.725 | 0.916 | 0.659 | 0.899 | 0.561 | 0.791 | 0.614 | 0.717 | 0.901 | 0.942 | 0.84 | 1.03 | 0.749 | 1.08 | 0.409
22 | LC-2-ad | 0.915 | 0.482 | 0.384 | 0.276 | 0.421 | 0.423 | 0.37 | 0.417 | 0.712 | 0.522 | 0.754 | 0.663 | 0.78 | 0.87 | 0.783 | 0.827 | 1.13 | 0.828 | 0.976 | 0.523
23 | LCLC-97TM1 | 0.976 | – | 0.916 | 0.767 | 0.593 | – | 0.339 | 0.141 | 0.382 | – | 0.213 | 0.234 | 0.216 | – | 0.165 | 0.14 | 1.1 | – | 0.882 | 0.403
24 | LCLC-103H | 0.449 | 0.414 | 0.419 | 0.279 | 1.03 | 1.06 | 1 | 0.713 | 0.817 | 0.719 | 0.641 | 0.664 | 0.995 | 1.01 | 0.971 | 0.939 | 0.986 | 0.99 | 0.945 | 0.628
25 | LK-2 | 0.328 | – | 0.309 | 0.321 | 0.198 | 0.333 | 0.245 | 0.187 | 0.798 | 0.283 | 0.663 | 0.346 | 1.28 | 0.921 | 0.914 | 0.943 | 1.04 | 0.727 | 1.03 | 0.943
26 | NCI-H522 | 0.876 | 0.785 | 0.788 | 0.849 | – | – | – | – | 0.633 | 0.58 | 0.774 | 0.592 | – | – | – | – | 1.09 | 0.788 | 0.82 | 0.694
27 | NCI-H1395 | 0.471 | 0.387 | 0.431 | 0.414 | – | – | – | – | 0.463 | 0.461 | 0.459 | 0.469 | 1.15 | 0.728 | 1.03 | 0.965 | 1.07 | 0.772 | 0.913 | 0.555
28 | NCI-H1650 | 0.358 | 0.35 | 0.248 | 0.242 | 1.04 | 1 | 1 | 0.68 | 0.833 | 0.798 | 0.646 | 0.493 | – | – | – | – | 1.15 | 0.784 | 0.629 | 0.389
29 | NCI-H1793 | 0.382 | 0.324 | 0.357 | 0.393 | – | – | – | – | 0.924 | 0.715 | 0.769 | 0.625 | 0.694 | 0.619 | 0.656 | 0.564 | 1.09 | 0.654 | 0.771 | 0.529
30 | SW 900 | 0.82 | 0.316 | 0.614 | 0.398 | – | – | – | – | 0.883 | 0.701 | 0.739 | 0.568 | – | – | – | – | 1.02 | 0.503 | 0.651 | 0.295
